Consider two compounds from US6313164A, “Dithiolin derivatives, their preparation and their therapeutic effect” (Sankyo Company, Limited, priority 1997, dated 2001).

The subject of assay [1] is glutathione reductase. Description: Measurement of glutathione reductase activity in cultured rat lens. Type of assay: cell-based, SD rats. The settings on record: 72 hours, 37° C. How it is done:
The test animals were 6 to 8 week old male SD rats (supplier: Nippon SLC). The animals were sacrificed by suffocation by inhalation of carbon dioxide. Both eyeballs of each test animal were then excised. An incision was made in the sclera on the back of the eyeballs, and then the vitreous body and iris-ciliary body were removed, followed by removal of the lens.
Each lens obtained in this manner was cultured by immersing it in 3 ml of the culture solution described below in a 6-well tissue culture plate (FALCON). Culturing was performed for 72 hours in a CO2 incubator maintained at 37° C. and 100% humidity in the presence of 5% CO2 (in air).
Medium 199 (Gibco) containing penicillin (20 units/ml) and streptomycin (20 μg/ml) was used as the control culture solution.
The test culture solution contained the test compound added to the above-mentioned culture solution. The cultured lenses were placed in frozen storage until the time of the test.
After homogenising each frozen rat lens in 2 ml of distilled water, the resulting homogenate was separated by centrifugation (10,000 g, 20 minutes) after which the resulting supernatant was used as the enzyme sample.
400 μl of enzyme sample were added to 0.6 ml of phosphate buffer containing 1 mM oxidized glutathione (GSSG) and 100 μM NADPH. After the mixture had reacted at 25° C. for 6 minutes, the absorbance of the reaction mixture (at 340 nm: i.e. OD340nm) was measured. The difference (ΔOD340nm) between the OD340nm value before reaction and the OD340nm value after completion of the reaction was used as an indicator of glutathione reductase activity.

Assay [2] concerns newborn rats. The settings on record: cited from earlier work.

For `CS(=O)(=O)NC(=O)CCCCC1CCSS1` (centres unmarked) [Example 2, N-[5-(1,2-Dithiolan-3-yl)pentanoyl]methanesulfonamide], the “ΔOD340 nm /min/g protein (indicator of glutathione reductase activity)” value was 3.24 ± 0.10 ΔOD340 nm /min/g protein in assay [1] (10 μM in lens culture solution); 3.20 ± 0.09 ΔOD340 nm /min/g protein in assay [1] (30 μM in lens culture solution); 3.59 ± 0.05 ΔOD340 nm /min/g protein in assay [1] (100 μM in lens culture solution, p < 0.05); 3.70 ± 0.08 ΔOD340 nm /min/g protein in assay [1] (300 μM in lens culture solution, p < 0.05); 4.16 ± 0.18 ΔOD340 nm /min/g protein in assay [1] (1000 μM in lens culture solution, p < 0.05).

As for `O=C(O)CCCCC1CCSS1` (centres unmarked) [lipoic acid], the “activity of glutathione reductase” value in assay [2] (lipoic acid in addition to BSO) was “does not increase”. In assay [2] (lipoic acid together with BSO), the cataract formation result is “suppressed”; the “total glutathione (oxidized and reduced glutathione) level” value was “decrease is prevented”.
